Data: patent publication US20200093768A1, “METHOD FOR TREATING DIABETES” (Huanggang Normal University, priority 2018, published 2020)
Marks after values point to notes of the source that are not given here.

Legend:
[1] = system: Zucker diabetic fatty (ZDF) rats; test: Anti-inflammatory cytokines (IL-4, IL-10, IL-13) by ELISA; assay type: in vivo, rat; conditions: for IL-10 plasma levels: versus ZDF controls (FIG. 5B)
Text: On study day 30, blood was collected at CRL.
The expression of inflammatory genes in blood and epididymal adipose tissue was next analyzed. A panel of three anti-inflammatory cytokines in whole blood was quantified by ELISA analysis as a measure for systemic inflammation (FIG. 5). IL-4, IL-10 and IL-13 are involved in the reduction of the inflammatory response through inhibition of NFκB signaling and cytokine release from macrophages.

[2] = system: Zucker diabetic fatty (ZDF) rats; test: HbA1c analysis in whole blood; assay type: in vivo, rat; conditions: after 30 days of treatment, versus ZDF controls (FIG. 3A)
Experimental: On study day 30, blood was collected at CRL. […] Glycated hemoglobin (HbA1c) levels in venous whole blood were determined at CRL using the HbA1c Now test kit (Bayer, Whippany, N.J.). HbA1c was measured in treatment groups by immunoassay with anti-HbA1c using tail nick whole blood.

[3] = system: Zucker diabetic fatty (ZDF) rats; test: Clinical chemistry analysis: insulin, adiponectin, lipid parameters; assay type: in vivo, rat
Experimental: Plasma analysis of insulin, adiponectin, cytokines and a full clinical chemistry panel with lipid parameters was performed at CRL using commercially available ELISA and colorimetric kits.

hyperglycemic adults = conditions: clinical pilot study, low dosage of ibuprofen; cited from earlier work
[4] = system: Zucker diabetic fatty (ZDF) rats; test: Oral glucose tolerance test (OGTT) on study day 29; conditions: day 29, overnight fasted, glucose 2 g/kg, versus ZDF vehicle control, metformin from 15 min (p<0.01), ibuprofen at 15 min (p<0.01) and 30 min (p<0.05)
[5] = system: Zucker diabetic fatty (ZDF) rats; test: Fasted and fed blood glucose in ZDF rats; conditions: for Fasted blood glucose levels: 5 hrs fasted, versus ZDF vehicle control (FIG. 1A)
[6] = Body weight, food intake and BMI of ZDF rats treated once daily for 30 days; assay type: in vivo, rat; parameters: Food Intake / BMI: unit not given here; conditions: for Change in body weight versus ZDF control (in words): ibuprofen between day 8 and 26; for BMI / Body Weight / Food Intake: oral gavage once daily (metformin 250 mg/kg, ibuprofen 100 mg/kg); for BMI / Food Intake: n=8; for Body Weight: n=8, in g (unit assumed); for Food Intake: recorded weekly
[7] = system: inflammatory genes (COX-2, ICAM-1, IL-1β, IL-6, TNF-α) in whole blood; test: TaqMan qPCR of inflammatory genes in whole blood; assay type: in vivo, rat; conditions: ZDF rats, normalized to GAPDH, versus ZDF controls (FIG. 6A)
Experimental: On study day 30, blood was collected at CRL. HbA1c was measured at 8 hrs on a drop of tail whole blood and then animals were fasted. At 11 hrs, animals were dosed per normal and euthanized at 13 hrs by CO2 asphyxiation. Blood was withdrawn by cardiac puncture and 1 mL of whole blood placed into cryo vials for RNA extraction. Remaining blood was centrifuged (at 2200×g for 10 minutes at 22° C.) and serum (500 uL) pipetted into 96 well plates on dry ice for analysis of the following: insulin, adiponectin, clinical chemistry panel with lipid parameters, and the inflammatory panel. Liver, epididymal fat, kidney, heart and spleen were collected and a representative piece was snap frozen. 100 mg of tissue was transferred into 1.5 mL cold RNA later tubes and stored overnight at 4° C. before being moved to −20° C. […]
In the next set of experiments, the expression of a subset of inflammatory genes were quantified in whole blood (FIG. 6A) and epididymal fat tissue (FIG. 6B): cyclooxygenase-2 (COX-2), intracellular adhesion molecule-1 (ICAM-1), interleukin-1β (IL-1β), interleukin-6 (IL-6) and tumor necrosis factor-α (TNF-α) by TaqMan qPCR analysis. […]

[8] = after 30 days, versus ZDF controls (FIG. 4D-F)
[9] = Day 29 (after overnight fasting), mean

SMILES	IL-10 plasma levels [1]	Glycated hemoglobin (HbA1c) [2]	Fasting cholesterol [3, 8]	HDL [3, 8]	Blood glucose in OGTT [4]	Fasted blood glucose levels [5]	Change in food intake versus ZDF control (in words) ([6]; chronic treatment)	Change in body weight versus ZDF control (in words) ([6]; chronic treatment)	BMI ([6]; Day 1, mean)	Body Weight ([6]; Day 1, mean)	Body Weight ([6]; Day 4, mean)	BMI ([6]; Day 8, mean)	Body Weight ([6]; Day 8, mean)	Body Weight ([6]; Day 11, mean)	BMI ([6]; Day 15, mean)	Body Weight ([6]; Day 15, mean)	Body Weight ([6]; Day 19, mean)	BMI ([6]; Day 22, mean)	Body Weight ([6]; Day 22, mean)	Body Weight ([6]; Day 26, mean)	other results
CC(C)Cc1ccc(C(C)C(=O)O)cc1 (stereo not drawn) [ibuprofen, 2-(4-Isobutylphenyl)propanoic acid]	No significant changes	attenuated the glycation of hemoglobin	strong decline	strong decline	significant decrease in blood glucose	did reduce fasting blood glucose levels but this was not significant	lower food intake	decline in body weight	2.67	386.5	370.8	2.51*	376.4**	379.4*	2.44	377.9	376.3*	2.47	385.8	380.6*	IL-4 level ([1]; versus ZDF controls (FIG. 5A)): significantly increased; IL-13 levels ([1]; versus ZDF controls (FIG. 5C)): increased; Glucose and insulin in hyperglycemic adults (hyperglycemic adults): did not reveal major differences; Body Weight [6, 9]: 359.0; BMI ([6]; Day 29, mean): 2.28; Food Intake ([6]; Day 8, mean): 225.4**; Food Intake ([6]; Day 15, mean): 258.8*; Food Intake ([6]; Day 22, mean): 233.5*; Food Intake ([6]; Day 28, mean): 239.3*
CN(C)C(=N)NC(=N)N [metformin, 1,1-dimethylbiguanide]	No significant changes	did not significantly affect	No significant differences	No significant differences	significant decline in blood glucose	significant decrease	did not cause any significant changes	did not cause any significant changes	2.60	376.6	377.8	2.57	388.5	396.1	2.47	390.9	400.8	2.52	399.9	405.6	LDL [3, 8]: No significant differences; Plasma insulin levels ([3]; day 30 (FIG. 3B)): 1.54 ng/mL; Fed glucose levels ([5]; fed, versus ZDF vehicle control (FIG. 1B)): significant higher levels on day 22 and 28; Change in BMI versus ZDF control (in words) ([6]; chronic treatment): did not cause any significant changes; Body Weight [6, 9]: 378.9; BMI ([6]; Day 29, mean): 2.39; Food Intake ([6]; Day 8, mean): 255.1; Food Intake ([6]; Day 15, mean): 309.9; Food Intake ([6]; Day 22, mean): 299.1; Food Intake ([6]; Day 28, mean): 278.8; ICAM-1 gene expression [7]: no differences
